Assay results taken from PMC3561686 (Basic & Clinical Pharmacology & Toxicology, 2012).
Like-named read-outs stand apart in the source and are kept apart here.

Legend:
CYP2C19 = CYP2C19 (Homo sapiens, UniProt P33261); test: CYP2C19 phenotyping: omeprazole metabolic ratio in plasma; format: in vivo; details: mean ratio
[1] = for AUC ratio (prasugrel + ritonavir versus prasugrel alone): AUC0–6 hr; for AUC ratio (prasugrel + ritonavir versus prasugrel alone) / Cmax ratio (prasugrel + ritonavir versus prasugrel alone): mean ratio; for Cmax: human, in vivo, prasugrel alone session, dried blood spots, mean (S.D.)
CYP3A = details: cited from earlier work
[2] = read-out: expected Cmax; after a 100 mg dose; cited from earlier work
human liver microsomes = details: cited from earlier work
CYP2C9 = CYP2C9 (Homo sapiens, UniProt P11712); details: mean ratio
Chain of CYP2C9 (P11712 whole entry): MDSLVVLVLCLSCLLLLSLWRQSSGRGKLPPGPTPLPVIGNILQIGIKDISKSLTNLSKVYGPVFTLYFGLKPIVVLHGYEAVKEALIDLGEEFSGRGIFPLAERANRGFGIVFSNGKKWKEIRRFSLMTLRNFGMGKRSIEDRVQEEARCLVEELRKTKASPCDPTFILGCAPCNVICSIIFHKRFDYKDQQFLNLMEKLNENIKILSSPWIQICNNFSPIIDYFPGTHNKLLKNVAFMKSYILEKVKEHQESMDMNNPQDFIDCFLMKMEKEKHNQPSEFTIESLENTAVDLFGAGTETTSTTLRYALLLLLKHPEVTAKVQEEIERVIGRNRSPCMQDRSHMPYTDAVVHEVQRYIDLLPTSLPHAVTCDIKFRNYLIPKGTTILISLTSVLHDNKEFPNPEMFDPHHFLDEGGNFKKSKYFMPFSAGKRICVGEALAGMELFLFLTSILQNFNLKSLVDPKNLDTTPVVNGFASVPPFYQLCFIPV

Chain of CYP2C19 (P33261 whole entry): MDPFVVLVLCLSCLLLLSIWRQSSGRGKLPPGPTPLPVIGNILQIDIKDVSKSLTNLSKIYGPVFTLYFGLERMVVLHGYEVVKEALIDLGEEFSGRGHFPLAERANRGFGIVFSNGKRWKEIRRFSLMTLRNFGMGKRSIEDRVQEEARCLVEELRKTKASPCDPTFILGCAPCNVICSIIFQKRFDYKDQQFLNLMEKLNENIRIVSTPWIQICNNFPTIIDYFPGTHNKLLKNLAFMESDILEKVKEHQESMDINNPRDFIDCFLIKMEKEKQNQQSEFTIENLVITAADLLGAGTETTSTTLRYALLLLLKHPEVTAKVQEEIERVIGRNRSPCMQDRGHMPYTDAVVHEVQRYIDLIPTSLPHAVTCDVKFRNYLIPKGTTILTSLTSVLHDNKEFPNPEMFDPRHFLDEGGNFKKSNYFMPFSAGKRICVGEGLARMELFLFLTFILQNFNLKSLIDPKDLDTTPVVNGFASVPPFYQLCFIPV

COc1ccc2[nH]c([S+]([O-])Cc3ncc(C)c(OC)c3C)nc2c1 (centres unmarked) [Omeprazole, omeprazole]
Metabolic Ratio (OH omeprazole/omeprazole), ratio prasugrel + ritonavir versus prasugrel alone (CYP2C19): not affected
AUC ratio (prasugrel + ritonavir versus prasugrel alone) [1]: 1.25
Cmax [1]: 35.6 ng/mL
Cmax ratio (prasugrel + ritonavir versus prasugrel alone) [1]: 1.54

CC(=O)N1CCN(c2ccc(OCC3COC(Cn4ccnc4)(c4ccc(Cl)cc4Cl)O3)cc2)CC1 (centres unmarked) [ketoconazole]
Change in prasugrel AM formation or the inhibition of platelet aggregation when prasugrel was administered with the drug (CYP3A): no change

CC(NC(C)(C)C)C(=O)c1cccc(Cl)c1 (centres unmarked) [Bupropion, bupropion]
Cmax [1]: 20.9 ng/mL

CC(C)c1nc(CN(C)C(=O)N[C@H](C(=O)N[C@@H](Cc2ccccc2)C[C@H](O)[C@H](Cc2ccccc2)NC(=O)OCc2cncs2)C(C)C)cs1 [ritonavir]
Cmax [2]: 1000 to 2000 nM
Inhibition of prasugrel bioactivation (human liver microsomes): potent inhibitor

CC(C(=O)O)c1ccc(-c2ccccc2)c(F)c1 (centres unmarked) [Flurbiprofen, flurbiprofen]
Metabolic Ratio (OH flurbiprofen/flurbiprofen), ratio prasugrel + ritonavir versus prasugrel alone (CYP2C9): not affected
AUC ratio (prasugrel + ritonavir versus prasugrel alone) [1]: 0.95
Cmax [1]: 1140 ng/mL
Cmax ratio (prasugrel + ritonavir versus prasugrel alone) [1]: 0.98

Cc1ncc2n1-c1ccc(Cl)cc1C(c1ccccc1F)=NC2 [Midazolam, midazolam]
AUC ratio (prasugrel + ritonavir versus prasugrel alone) [1]: 26.5
AUC ratio (prasugrel + ritonavir versus prasugrel alone) ([1]; listed as midazolam): 26
Cmax [1]: 0.17 ng/mL
Cmax ratio (prasugrel + ritonavir versus prasugrel alone) [1]: 6.1
Cmax ratio (prasugrel + ritonavir versus prasugrel alone) ([1]; listed as midazolam): 6
